Assay results reported in US20250144067A1, “PERSONALIZED STARVATION THERAPY FOR CANCER” (Faeth Therapeutics, Inc., priority 2021, published 2025).
Where a name gives a salt, the structure may show the parent alone.

Experiments:
[1] = tested on: NCI-H292 lung cancer cells; assay: FDA drug screening, complete media vs cholesterol-free media with simvastatin (TABLE 2); type: cell-based, human; conditions: for Cholesterol-free media + simvastatin (0.04 μM) / Complete Media: NCI-H292 cells
[2] = tested on: NCI-H292 lung cancer cells; assay: FDA drug screening, complete media vs cholesterol-free media without statin (TABLE 1); type: cell-based, human
[3] = drug in cholesterol-free media with simvastatin 0.04 μM
[4] = complete media vs cholesterol-free media + simvastatin (0.04 μM), >0 enhanced anti-cancer activity, about 0 neutral, <0 antagonist
[5] = Complete minus Cholesterol-free, >0 enhanced anti-cancer activity, about 0 neutral, <0 antagonist
[6] = NCI-H292 cells, cholesterol-free media without statin, FDA drug library screen
[7] = NCI-H292 cells, complete media, FDA drug library screen
[8] = FDA drug library screen, cholesterol-free media with simvastatin 0.04 μM
[9] = FDA drug library screen, complete media
[10] = complete media minus cholesterol-free media + simvastatin, >0 enhanced anti-cancer activity, about 0 neutral, <0 antagonist
[11] = complete vs cholesterol-free media, >0 enhanced anti-cancer activity, about 0 neutral, <0 antagonist
[12] = Complete minus Cholesterol-free, greater than 0 enhanced anti-cancer activity, about 0 neutral, below 0 antagonist
[13] = NCI-H292 cells, FDA drug library screen, cholesterol-free media without statin
[14] = NCI-H292 cells, FDA drug library screen, complete media
[15] = FDA library drug in cholesterol-free media with simvastatin 0.04 μM
[16] = FDA library drug in complete media
[17] = cholesterol-free media with simvastatin 0.04 μM, cell growth value in FDA drug screen
[18] = complete media, cell growth value in FDA drug screen
[19] = complete media vs cholesterol-free media + simvastatin (0.04 μM), […]
[20] = cholesterol-free media with simvastatin 0.04 μM, FDA drug library screen (TABLE 2)
[21] = complete media, FDA drug library screen (TABLE 2)
[22] = complete media minus cholesterol-free media + simvastatin (0.04 μM), >0 enhanced anti-cancer activity, about 0 neutral, <0 antagonist
[23] = Complete minus Cholesterol-free, […]
[24] = NCI-H292 cells, cholesterol-free media without statin
[25] = complete vs cholesterol-free media, greater than 0 enhanced anti-cancer activity, about 0 neutral, below 0 antagonists

OC[C@H]1OC(O)[C@H](O)[C@@H](O)[C@@H]1O (stereo partly drawn) [D-Glucose]
Cholesterol-free media + simvastatin (0.04 μM) [1, 3]: 0.822
Complete Media ([1]; drug in complete media): 0.5991
Difference [1, 4]: −0.22
Difference [2, 5]: −0.06
Cholesterol-free [2, 6]: 0.3615
Complete [2, 7]: 0.3017

OC[C@@H](O)[C@@H](O)[C@H](O)[C@H](O)CO [D-Mannitol]
Cholesterol-free media + simvastatin (0.04 μM) [1, 8]: 1.033
Complete Media [1, 9]: 1.748
Difference [1, 10]: 0.71
Cholesterol-free [2, 6]: 0.8621
Complete [2, 7]: 1.662
Difference [2, 11]: 0.80

CC(C)(CO)[C@H](O)C(=O)NCCCO [D-Panthenol]
Cholesterol-free media + simvastatin (0.04 μM) [1, 3]: 1.067
Complete Media ([1]; drug in complete media): 0.817
Difference [1, 4]: −0.25
Difference [2, 12]: −0.09
Cholesterol-free [2, 13]: 1.002
Complete [2, 14]: 0.9087

CC(C)(CO)[C@@H](O)C(=O)NCCC(=O)[O-].CC(C)(CO)[C@@H](O)C(=O)NCCC(=O)[O-].[Ca+2] [D-Pantothenic acid (hemicalcium salt)]
Cholesterol-free media + simvastatin (0.04 μM) [1, 15]: 1.159
Complete Media [1, 16]: 0.786
Difference [1, 4]: −0.37
Difference [2, 5]: −0.04
Cholesterol-free [2, 6]: 0.8788
Complete [2, 7]: 0.8434

CC(C)(CO)[C@H](O)C(=O)NCCC(=O)O.[Na] [D-Pantothenic acid (sodium)]
Cholesterol-free media + simvastatin (0.04 μM) [1, 3]: 1.102
Complete Media ([1]; drug in complete media): 0.858
Difference [1, 4]: −0.24
Difference [2, 5]: −0.03
Cholesterol-free [2, 6]: 1.02
Complete [2, 7]: 0.9879

OC[C@@H](O)[C@@H](O)[C@H](O)[C@@H](O)CO [D-Sorbitol]
Cholesterol-free media + simvastatin (0.04 μM) [1, 8]: 1.142
Complete Media [1, 9]: 1.023
Difference [1, 4]: −0.12
Cholesterol-free [2, 6]: 1.006
Complete [2, 7]: 1.32
Difference [2, 11]: 0.31

N[C@H](Cc1ccc(O)cc1)C(=O)O [D-Tyrosine]
Cholesterol-free media + simvastatin (0.04 μM) [1, 15]: 1.43
Complete Media [1, 16]: 0.9975
Difference [1, 4]: −0.43
Difference [2, 5]: −0.01
Cholesterol-free [2, 6]: 1.081
Complete [2, 7]: 1.068

CC(=O)Oc1c(C)c(C)c2c(c1C)CCC(C)(CCC[C@H](C)CCC[C@H](C)CCCC(C)C)O2 (stereo partly drawn) [D-α-Tocopherol acetate]
Cholesterol-free media + simvastatin (0.04 μM) [1, 17]: 0.8974
Complete Media [1, 18]: 1.003
Difference [1, 10]: 0.11
Cholesterol-free [2, 6]: 0.7729
Complete [2, 7]: 1.233
Difference [2, 11]: 0.46

C[C@]12CC[C@H](O)CC1=CC[C@@H]1[C@@H]2CC[C@]2(C)C(=O)CC[C@@H]12 [DHEA]
Cholesterol-free media + simvastatin (0.04 μM) [1, 15]: 1.034
Complete Media [1, 16]: 0.7371
Difference [1, 19]: −0.30
Cholesterol-free [2, 6]: 1.449
Complete [2, 7]: 1.634
Difference ([2]; complete vs cholesterol-free media, […]): 0.19

CCCCCCOC(=O)N=C(N)c1ccc(NCc2nc3cc(C(=O)N(CCC(=O)OCC)c4ccccn4)ccc3n2C)cc1 [Dabigatran etexilate]
Cholesterol-free media + simvastatin (0.04 μM) [1, 17]: 0.8555
Complete Media [1, 18]: 0.8818
Difference [1, 10]: 0.03
Difference [2, 12]: −0.09
Cholesterol-free [2, 13]: 0.9682
Complete [2, 14]: 0.8738

CC(C)(C)c1nc(-c2cccc(NS(=O)(=O)c3c(F)cccc3F)c2F)c(-c2ccnc(N)n2)s1 [Dabrafenib]
Cholesterol-free media + simvastatin (0.04 μM) [1, 20]: 0.7299
Complete Media [1, 21]: 0.7037
Difference [1, 22]: −0.03
Difference [2, 12]: −0.18
Cholesterol-free [2, 13]: 0.7255
Complete [2, 14]: 0.5433

CN(C)/N=N/c1[nH]cnc1C(N)=O [Dacarbazine]
Cholesterol-free media + simvastatin (0.04 μM) [1, 8]: 1.089
Complete Media [1, 9]: 0.9656
Difference [1, 4]: −0.12
Difference [2, 12]: −0.11
Cholesterol-free [2, 13]: 1.191
Complete [2, 14]: 1.077

COC(=O)N[C@H](C(=O)N1CCC[C@H]1c1nc(-c2ccc(-c3ccc(-c4c[nH]c([C@@H]5CCCN5C(=O)[C@@H](NC(=O)OC)C(C)C)n4)cc3)cc2)c[nH]1)C(C)C [Daclatasvir (dihydrochloride)]
Cholesterol-free media + simvastatin (0.04 μM) [1, 15]: 1.149
Complete Media [1, 16]: 0.7215
Difference [1, 4]: −0.43
Difference [2, 5]: 0.02
Cholesterol-free [2, 6]: 1.025
Complete [2, 7]: 1.046

COC(=O)N[C@H](C(=O)N1CCC[C@H]1c1nc(-c2ccc(-c3ccc(-c4c[nH]c([C@@H]5CCCN5C(=O)[C@@H](NC(=O)OC)C(C)C)n4)cc3)cc2)c[nH]1)C(C)C [Daclatasvir]
Cholesterol-free media + simvastatin (0.04 μM) [1, 8]: 0.9463
Complete Media [1, 9]: 1.136
Difference [1, 10]: 0.19
Difference [2, 5]: 0.04
Cholesterol-free [2, 6]: 0.703
Complete [2, 7]: 0.7437

COc1cc2ncnc(Nc3ccc(F)c(Cl)c3)c2cc1NC(=O)/C=C/CN1CCCCC1 [Dacomitinib]
Cholesterol-free media + simvastatin (0.04 μM) [1, 17]: 0.3301
Complete Media [1, 18]: 0.437
Difference [1, 10]: 0.11
Difference [2, 12]: −0.12
Cholesterol-free [2, 13]: 0.3597
Complete [2, 14]: 0.2371

O=c1c(-c2ccc(O)cc2)coc2cc(O)ccc12 [Daidzein]
Cholesterol-free media + simvastatin (0.04 μM) [1, 8]: 1.306
Complete Media [1, 9]: 1.614
Difference [1, 10]: 0.31
Difference [2, 5]: −0.02
Cholesterol-free [2, 6]: 1.1
Complete [2, 7]: 1.082

O=c1c(-c2ccc(O)cc2)coc2cc(O[C@@H]3O[C@H](CO)[C@@H](O)[C@H](O)[C@H]3O)ccc12 [Daidzin]
Cholesterol-free media + simvastatin (0.04 μM) [1, 3]: 1.011
Complete Media ([1]; drug in complete media): 0.8061
Difference [1, 19]: −0.20
Difference [2, 23]: −0.25
Cholesterol-free [2, 24]: 1.084
Complete ([2]; NCI-H292 cells, complete media): 0.8381

CN[C@H]1C(=O)N[C@@H]2Cc3ccc(cc3)Oc3cc4cc(c3O[C@@H]3O[C@H](C(=O)O)[C@@H](O)[C@H](O)[C@H]3NC(=O)CCCCCCCCC(C)C)Oc3ccc(cc3Cl)[C@@H](O)[C@@H]3NC(=O)[C@H](NC(=O)[C@@H]4NC(=O)[C@@H](NC2=O)c2cc(cc(O)c2Cl)Oc2cc1ccc2O)c1ccc(O)c(c1)-c1c(O[C@H]2O[C@H](CO)[C@@H](O)[C@H](O)[C@@H]2O)cc(O)cc1[C@@H](C(=O)NCCCN(C)C)NC3=O [Dalbavancin (hydrochloride)]
Cholesterol-free media + simvastatin (0.04 μM) [1, 3]: 1.058
Complete Media ([1]; drug in complete media): 0.8779
Difference [1, 19]: −0.18
Difference [2, 23]: −0.27
Cholesterol-free [2, 24]: 1.639
Complete ([2]; NCI-H292 cells, complete media): 1.366

C#C[C@]1(O)CC[C@H]2[C@@H]3CCC4=Cc5oncc5C[C@]4(C)[C@H]3CC[C@@]21C [Danazol]
Cholesterol-free media + simvastatin (0.04 μM) [1, 8]: 1.056
Complete Media [1, 9]: 0.9458
Difference [1, 4]: −0.11
Difference [2, 5]: −0.06
Cholesterol-free [2, 6]: 0.8249
Complete [2, 7]: 0.7604

CC(C)(C)OC(=O)N[C@H]1CCCCC/C=C\[C@@H]2C[C@@]2(C(=O)NS(=O)(=O)C2CC2)NC(=O)[C@@H]2C[C@@H](OC(=O)N3Cc4cccc(F)c4C3)CN2C1=O [Danoprevir]
Cholesterol-free media + simvastatin (0.04 μM) [1, 20]: 0.8835
Complete Media [1, 21]: 0.8799
Difference [1, 22]: 0.00
Cholesterol-free [2, 6]: 0.802
Complete [2, 7]: 1.257
Difference [2, 11]: 0.45

O=C1c2cccc(O)c2C(=O)c2c(O)cccc21 [Danthron]
Cholesterol-free media + simvastatin (0.04 μM) [1, 3]: 1.634
Complete Media ([1]; drug in complete media): 1.469
Difference [1, 4]: −0.16
Difference [2, 12]: −0.15
Cholesterol-free [2, 13]: 0.9427
Complete [2, 14]: 0.7921

O.O.O.O.O.O.O.O=C1N=C([O-])CN1/N=C/c1ccc(-c2ccc([N+](=O)[O-])cc2)o1.O=C1N=C([O-])CN1/N=C/c1ccc(-c2ccc([N+](=O)[O-])cc2)o1.[Na+].[Na+] [Dantrolene (sodium hemiheptahydrate)]
Cholesterol-free media + simvastatin (0.04 μM) [1, 15]: 1.565
Complete Media [1, 16]: 1.218
Difference [1, 4]: −0.35
Cholesterol-free [2, 24]: 1.274
Complete ([2]; NCI-H292 cells, complete media): 0.9468
Difference [2, 25]: −0.33

CCOc1ccc(Cc2cc([C@@H]3O[C@H](CO)[C@@H](O)[C@H](O)[C@H]3O)ccc2Cl)cc1 [Dapagliflozin]
Cholesterol-free media + simvastatin (0.04 μM) [1, 15]: 1.024
Complete Media [1, 16]: 0.6919
Difference [1, 4]: −0.33
Difference [2, 12]: −0.18
Cholesterol-free [2, 13]: 1.052
Complete [2, 14]: 0.875

O=c1ccc2ccc(O)c(O)c2o1 [Daphnetin]
Cholesterol-free media + simvastatin (0.04 μM) [1, 3]: 1.124
Complete Media ([1]; drug in complete media): 0.9139
Difference [1, 4]: −0.21
Difference [2, 5]: −0.27
Cholesterol-free [2, 24]: 1.207
Complete ([2]; NCI-H292 cells, complete media): 0.9359

Cc1ccccc1N1CCN(CCc2nnc3n2CCCC3)CC1 [Dapiprazole (hydrochloride)]
Cholesterol-free media + simvastatin (0.04 μM) [1, 15]: 1.337
Complete Media [1, 16]: 1.063
Difference [1, 4]: −0.27
Difference ([2]; Complete minus Cholesterol-free, greater than 0 enhanced anti-cancer activity, about 0 neutral, below 0 antagonists): −0.49
Cholesterol-free ([2]; NCI-H292 cells in cholesterol-free media without statin): 1.532
Complete ([2]; NCI-H292 cells in complete media): 1.043

CN(C)[C@@H](CCOc1cccc2ccccc12)c1ccccc1 [Dapoxetine (hydrochloride)]
Cholesterol-free media + simvastatin (0.04 μM) [1, 20]: 1.079
Complete Media [1, 21]: 1.031
Difference [1, 22]: −0.05
Cholesterol-free [2, 24]: 1.092
Complete ([2]; NCI-H292 cells, complete media): 0.7794
Difference [2, 25]: −0.31
